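Each compound was tested at five concentrations against cells in 96-well plates for 48 hours. At the GI50, growth is halved.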 Calls of active or inactive are those of the source. Cut-off read from the data, not from the text of the source: active = GI50 up to about 1.1 µM and inactive = higher.
Experiments:
Test in all cases: inhibition of tumour cell growth, NCI panel, 48 h
SW-620 = system: SW-620
UO-31 = system: UO-31
LOX IMVI = system: LOX IMVI
M14 = system: M14
SK-MEL-2 = system: SK-MEL-2
Hs-578T = system: Hs-578T
KM12 = system: KM12
HCT-116 = system: HCT-116
SF-539 = system: SF-539
Malme-3M = system: Malme-3M
HOP-62 = system: HOP-62
U-251 = system: U-251
SF-268 = system: SF-268
SK-MEL-28 = system: SK-MEL-28
CCRF-CEM = system: CCRF-CEM
MDA-N = system: MDA-N
CAKI-1 = system: CAKI-1
RXF 393 = system: RXF 393
TK-10 = system: TK-10
SN12C = system: SN12C
IGROV-1 = system: IGROV-1
PC-3 = system: PC-3
OVCAR-8 = system: OVCAR-8
786-0 = system: 786-0
A498 = system: A498
OVCAR-4 = system: OVCAR-4
DU-145 = system: DU-145
SK-OV-3 = system: SK-OV-3
OVCAR-3 = system: OVCAR-3
MDA-MB-435 = system: MDA-MB-435
UACC-257 = system: UACC-257
NCI-H23 = system: NCI-H23
HL-60 = system: HL-60
NCI-H522 = system: NCI-H522
HCT-15 = system: HCT-15
OVCAR-5 = system: OVCAR-5
MDA-MB-231 = system: MDA-MB-231
MOLT-4 = system: MOLT-4
A549 = system: A549
SK-MEL-5 = system: SK-MEL-5
EKVX = system: EKVX
COLO 205 = system: COLO 205
BT-549 = system: BT-549
RPMI-8226 = system: RPMI-8226
SF-295 = system: SF-295
UACC-62 = system: UACC-62
HT-29 = system: HT-29
ACHN = system: ACHN
SNB-19 = system: SNB-19
NCI-H226 = system: NCI-H226
MCF7 = system: MCF7
NCI/ADR-RES = system: NCI/ADR-RES
T47D = system: T47D
NCI-H460 = system: NCI-H460
HCC 2998 = system: HCC 2998
K562 = system: K562
SR = system: SR
SNB-75 = system: SNB-75
HOP-92 = system: HOP-92

COc1cccc2c1C(=O)c1c(O)c3c(c(O)c1C2=O)CC(O)(C(=O)CO)CC3OC1CC(N2CCOCC2C#N)C(O)C(C)O1 (configuration not stated)
GI50 (SW-620): < 0.0001 µM (active) | GI50 (UO-31): > 0.01 µM (active) | GI50 (LOX IMVI): < 0.0001 µM (active) | GI50 (M14): < 0.0001 µM (active) | GI50 (SK-MEL-2): < 0.0001 µM (active) | GI50 (Hs-578T): > 0.01 µM (active) | GI50 (KM12): < 0.0001 µM (active) | GI50 (HCT-116): < 0.0001 µM (active) | GI50 (SF-539): < 0.0001 µM (active) | GI50 (Malme-3M): < 0.0001 µM (active) | GI50 (HOP-62): < 0.0001 µM (active) | GI50 (U-251): < 0.0001 µM (active) | GI50 (SF-268): > 0.01 µM (active) | GI50 (SK-MEL-28): < 0.0001 µM (active) | GI50 (CCRF-CEM): < 0.0001 µM (active) | GI50 (MDA-N): < 0.0001 µM (active) | GI50 (CAKI-1): < 0.0001 µM (active) | GI50 (RXF 393): > 0.01 µM (active) | GI50 (TK-10): < 0.0001 µM (active) | GI50 (SN12C): < 0.0001 µM (active) | GI50 (IGROV-1): > 0.01 µM (active) | GI50 (PC-3): < 0.0001 µM (active) | GI50 (OVCAR-8): < 0.0001 µM (active) | GI50 (786-0): < 0.0001 µM (active) | GI50 (A498): > 0.01 µM (active) | GI50 (OVCAR-4): > 0.01 µM (active) | GI50 (DU-145): < 0.0001 µM (active) | GI50 (SK-OV-3): > 0.01 µM (active) | GI50 (OVCAR-3): < 0.0001 µM (active) | GI50 (MDA-MB-435): < 0.0001 µM (active) | GI50 (UACC-257): < 0.0001 µM (active) | GI50 (NCI-H23): < 0.0001 µM (active) | GI50 (HL-60): < 0.0001 µM (active) | GI50 (NCI-H522): < 0.0001 µM (active) | GI50 (HCT-15): < 0.0001 µM | GI50 (OVCAR-5): < 0.0001 µM (active) | GI50 (MDA-MB-231): < 0.0001 µM (active) | GI50 (MOLT-4): < 0.0001 µM (active) | GI50 (A549): < 0.0001 µM (active) | GI50 (SK-MEL-5): < 0.0001 µM (active) | GI50 (EKVX): < 0.0001 µM (active) | GI50 (COLO 205): < 0.0001 µM (active) | GI50 (BT-549): < 0.0001 µM (active) | GI50 (RPMI-8226): < 0.0001 µM (active) | GI50 (SF-295): < 0.0001 µM (active) | GI50 (UACC-62): < 0.0001 µM (active) | GI50 (HT-29): < 0.0001 µM (active) | GI50 (ACHN): < 0.0001 µM (active) | GI50 (SNB-19): < 0.0001 µM (active) | GI50 (NCI-H226): < 0.0001 µM (active) | GI50 (MCF7): < 0.0001 µM (active) | GI50 (NCI/ADR-RES): < 0.0001 µM (active) | GI50 (T47D): < 0.0001 µM (active) | GI50 (NCI-H460): < 0.0001 µM (active) | GI50 (HCC 2998): < 0.0001 µM (active) | GI50 (K562): < 0.0001 µM (active) | GI50 (SR): < 0.0001 µM (active) | GI50 (SNB-75): > 0.01 µM (active) | GI50 (HOP-92): < 0.0001 µM (active)

N=C(N)SCc1ccc(Cl)c2ccccc12.O=[N+]([O-])c1ccc(O)c([N+](=O)[O-])c1
GI50 (SW-620): 11.7 µM (inactive) | GI50 (UO-31): 12.3 µM (inactive) | GI50 (LOX IMVI): 14.9 µM (inactive) | GI50 (M14): 13 µM (inactive) | GI50 (SK-MEL-2): 11.6 µM (inactive) | GI50 (Hs-578T): 20.7 µM (inactive) | GI50 (KM12): 12.3 µM (inactive) | GI50 (HCT-116): 13.4 µM (inactive) | GI50 (SF-539): 5.2 µM (inactive) | GI50 (Malme-3M): 10 µM (inactive) | GI50 (HOP-62): 14.1 µM (inactive) | GI50 (U-251): 11.4 µM (inactive) | GI50 (SF-268): 15.4 µM (inactive) | GI50 (SK-MEL-28): 12.6 µM (inactive) | GI50 (CCRF-CEM): 3.23 µM (inactive) | GI50 (MDA-N): 11.1 µM (inactive) | GI50 (CAKI-1): 11.7 µM (inactive) | GI50 (RXF 393): 8.02 µM (inactive) | GI50 (TK-10): 6.84 µM (inactive) | GI50 (SN12C): 11 µM (inactive) | GI50 (IGROV-1): 14.2 µM (inactive) | GI50 (PC-3): 12.6 µM (inactive) | GI50 (OVCAR-8): 22.1 µM (inactive) | GI50 (786-0): 12.4 µM (inactive) | GI50 (A498): 9.4 µM (inactive) | GI50 (OVCAR-4): 10.9 µM (inactive) | GI50 (DU-145): 12.9 µM (inactive) | GI50 (SK-OV-3): 15.3 µM (inactive) | GI50 (OVCAR-3): 8.95 µM (inactive) | GI50 (MDA-MB-435): 8.24 µM (inactive) | GI50 (UACC-257): 4.19 µM (inactive) | GI50 (NCI-H23): 12.6 µM (inactive) | GI50 (HL-60): 2.82 µM (inactive) | GI50 (NCI-H522): 7.78 µM (inactive) | GI50 (HCT-15): 14.5 µM | GI50 (OVCAR-5): 13.5 µM (inactive) | GI50 (MDA-MB-231): 12.7 µM (inactive) | GI50 (MOLT-4): 1.4 µM (inactive) | GI50 (A549): 16.9 µM (inactive) | GI50 (SK-MEL-5): 8.61 µM (inactive) | GI50 (EKVX): 10.3 µM (inactive) | GI50 (COLO 205): 6.81 µM (inactive) | GI50 (BT-549): 15.6 µM (inactive) | GI50 (RPMI-8226): 1.32 µM (inactive) | GI50 (SF-295): 9.91 µM (inactive) | GI50 (UACC-62): 12.5 µM (inactive) | GI50 (HT-29): 11.4 µM (inactive) | GI50 (ACHN): 12.9 µM (inactive) | GI50 (SNB-19): 16.2 µM (inactive) | GI50 (NCI-H226): 12.4 µM (inactive) | GI50 (MCF7): 10 µM (inactive) | GI50 (NCI/ADR-RES): 16.7 µM (inactive) | GI50 (T47D): 5.35 µM (inactive) | GI50 (NCI-H460): 7.55 µM (inactive) | GI50 (HCC 2998): 2.04 µM (inactive) | GI50 (K562): 0.421 µM (active) | GI50 (SR): 1.04 µM (active) | GI50 (SNB-75): 4.56 µM (inactive) | GI50 (HOP-92): 6.67 µM (inactive)

O=c1c2cc(I)ccc2nc(Sc2ccc([N+](=O)[O-])cc2[N+](=O)[O-])n1Cc1ccccc1
GI50 (SW-620): 2.47 µM (inactive) | GI50 (UO-31): 2.26 µM (inactive) | GI50 (LOX IMVI): 1.46 µM (inactive) | GI50 (M14): 1.94 µM (inactive) | GI50 (SK-MEL-2): 1.85 µM (inactive) | GI50 (Hs-578T): 4.78 µM (inactive) | GI50 (KM12): 3.32 µM (inactive) | GI50 (HCT-116): 1.26 µM (inactive) | GI50 (SF-539): 2.25 µM (inactive) | GI50 (Malme-3M): 5.51 µM (inactive) | GI50 (HOP-62): 2.93 µM (inactive) | GI50 (U-251): 3.81 µM (inactive) | GI50 (SF-268): 1.6 µM (inactive) | GI50 (SK-MEL-28): 7.14 µM (inactive) | GI50 (CCRF-CEM): 0.159 µM (active) | GI50 (MDA-N): 1.52 µM (inactive) | GI50 (CAKI-1): 2.64 µM (inactive) | GI50 (RXF 393): 2.38 µM (inactive) | GI50 (TK-10): 7.59 µM (inactive) | GI50 (SN12C): 1.46 µM (inactive) | GI50 (IGROV-1): 2.02 µM (inactive) | GI50 (PC-3): 2.89 µM (inactive) | GI50 (OVCAR-8): 1.6 µM (inactive) | GI50 (786-0): 0.815 µM (active) | GI50 (A498): 7.03 µM (inactive) | GI50 (OVCAR-4): 2.49 µM (inactive) | GI50 (DU-145): 2.96 µM (inactive) | GI50 (SK-OV-3): 8.13 µM (inactive) | GI50 (OVCAR-3): 1.9 µM (inactive) | GI50 (MDA-MB-435): 1.82 µM (inactive) | GI50 (UACC-257): 4.65 µM (inactive) | GI50 (NCI-H23): 3.02 µM (inactive) | GI50 (HL-60): 1.83 µM (inactive) | GI50 (NCI-H522): 1.04 µM (active) | GI50 (HCT-15): 1.61 µM | GI50 (OVCAR-5): 9.02 µM (inactive) | GI50 (MDA-MB-231): 5.22 µM (inactive) | GI50 (MOLT-4): 1.39 µM (inactive) | GI50 (A549): 15.2 µM (inactive) | GI50 (SK-MEL-5): 3.48 µM (inactive) | GI50 (EKVX): 3.55 µM (inactive) | GI50 (COLO 205): 5.14 µM (inactive) | GI50 (BT-549): 1.29 µM (inactive) | GI50 (RPMI-8226): 1.74 µM (inactive) | GI50 (SF-295): 5.92 µM (inactive) | GI50 (UACC-62): 2.29 µM (inactive) | GI50 (HT-29): 3.24 µM (inactive) | GI50 (ACHN): 8.73 µM (inactive) | GI50 (SNB-19): 6.65 µM (inactive) | GI50 (NCI-H226): 2.74 µM (inactive) | GI50 (MCF7): 2.02 µM (inactive) | GI50 (NCI/ADR-RES): 1.83 µM (inactive) | GI50 (T47D): 1.71 µM (inactive) | GI50 (NCI-H460): 4.24 µM (inactive) | GI50 (HCC 2998): 2.92 µM (inactive) | GI50 (K562): 1.78 µM (inactive) | GI50 (SR): 0.394 µM (active) | GI50 (SNB-75): 3.91 µM (inactive) | GI50 (HOP-92): 2.33 µM (inactive)

From ChEMBL document CHEMBL1201862, “PubChem BioAssay data set” (2004)
